Values of other authors, collected in US20100143460A1, “SOLID DOSAGE FORMS COMPRISING ALISKIREN AND PHARMACEUTICALLY ACCEPTABLE SALTS THEREOF” (KRKA, TOVARNA ZDRAVIL, D.D., NOVO MESTO, priority 2007, published 2010).

Conditions: described in EP-A-1 517 682

solubility in water: very readily soluble in water
Structure (SMILES): COCCCOc1cc(C[C@@H](C[C@H](N)[C@@H](O)C[C@H](C(=O)NCC(C)(C)C(N)=O)C(C)C)C(C)C)ccc1OC [aliskiren]
